Data reported in PMC5995839, “Exploring the role of unnatural amino acids in antimicrobial peptides” (Scientific Reports, 2018).
Values after ≈ are worked out from the molar mass of the structure shown. Square brackets hold non-standard residues; d marks the D form. Peptide text beside a SMILES is read from it. * marks the point of attachment. 2Nal = N[C@@H](Cc1ccc2ccccc2c1)C(=O)O; Ahx = NCCCCCC(=O)O; StBu = CC(C)(C)S*; tBu = CC(C)(C)*

How the values were obtained:
[1] = tested on: Escherichia coli ATCC 25922; format: cell-based
Method: The antimicrobial activity of the three designed peptides was tested against Escherichia coli (ATCC® 25922™), Pseudomonas aeruginosa (ATCC® 27853™), Pseudomonas aeruginosa PAO1 wild type strain, Bacillus subtilis subsp. spizizenii (ATCC® 6633™), Staphylococcus aureus (ATCC® 6538 P™) and Staphylococcus aureus MRSA WKZ-2 (kindly provided by collection of Prof. Edwin Veldhuizen, University of Utrecht, Holland). MIC assays were performed by broth microdilution method as described elsewhere[34] using Nutrient Broth (Becton Dickinson Difco, Franklin Lakes, NJ) as bacterial growth medium. […] Experiments were performed three times for each peptide.
Following the incubation time, MIC assays were carried out as previously described. […] Experiments were performed five times for each peptide.

[2] = tested on: Pseudomonas aeruginosa PAO1 wild type strain; format: cell-based
Method: (§2) MIC assays were performed by broth microdilution method as described elsewhere[34] using Nutrient Broth (Becton Dickinson Difco, Franklin Lakes, NJ) as bacterial growth medium. […] Experiments were performed three times for each peptide.

[3] = tested on: Bacillus subtilis subsp. spizizenii (ATCC 6633); format: cell-based
Method: as §2

[4] = tested on: Staphylococcus aureus MRSA WKZ-2; format: cell-based
Method: as §2

[5] = tested on: Pseudomonas aeruginosa (ATCC 27853); format: cell-based
Method: as §2

[6] = tested on: Escherichia coli (ATCC 25922); format: cell-based
Method: as §2

[7] = tested on: human intestinal CaCo-2 cells; format: cell-based
Method: (§1) Cytotoxic effects of the three peptides on human epithelial colorectal adenocarcinoma cells (CaCo-2) and on aneuploid immortal keratinocyte cells line from adult human skin (HaCaT) were assessed by performing the (3-(4,5-dimethylthiazol-2-yl)−2,5 diphenyltetrazolium bromide (MTT) reduction inhibition assay. Both human cell lines were obtained from the American Type Culture Collection (ATCC, Manassas, VA, USA) and grown at 37 °C in a humidified incubator containing 5% CO2 in Dulbecco’s modified Eagle’s medium (DMEM) supplemented with 10% fetal bovine serum, 4 mM glutamine, 400 units/mL penicillin, and 0.1 mg mL^−1 streptomycin. Cells were plated on 96-well plates at a density of 5 × 10^3 per well in 100 μL of medium and incubated at 37 °C with 5% CO2. Medium was then replaced with 100 μl of fresh media containing peptide solution to a final concentration ranging from 0.1–10 μM/well. After a time of incubation ranging from 18 to 48 hours at 37 °C, the peptide-containing medium was removed, and 10 μL of a 5 mg mL^−1 MTT stock solution in DMEM without red phenol, corresponding to a final concentration of […] in DMEM (final volume of 100 μL), was added to the cells. […] Cell survival was reported as the relative absorbance, with respect to control, of blue formazan measured at 570 nm with a Synergy Multi Plate Reader. […]

[8] = tested on: human keratinocytes cells HaCaT; format: cell-based
Method: as §1

[9] = tested on: Staphylococcus aureus (ATCC 6538P); format: cell-based
[10] = Relative hydrophobicity by retention in reverse phase HPLC; format: physicochemical; settings: chromatographic, Fig. S4 and Table S1 (numbers not available here)
Method: Crude peptides were purified by preparative HPLC on a Shimadzu LC-8A system. A Vydac C18 column (22 mm × 250 mm; 10 μm) was used, eluted with a H2O 0.1% TFA, (eluent A) and CH3CN 0.1% TFA (eluent B) linear gradient at 22 mL min^−1 flow rate. Fractions were separated according to their absorbance at 210 nm by an online UV detector (Shimadzu). Peptide fractions were then checked for their purity by analytical LCMS. Peptide identities were confirmed by LCMS analysis on a Shimadzu 20ADxr coupled with a Shimadzu ESI-IT-TOF mass detector (probe voltage 4.5 kV; probe temperature 25 °C; desolvation temperature 250 °C; detector voltage 1.5 kV). All analyses were performed with a Vydac C18 column (2.1 mm × 100 mm; 5 μm), eluted with a H2O 0.05% TFA, (eluent A) and CH3CN 0.05% TFA (eluent B) linear gradient, from 5% to 95% (solvent B), over 30 minutes, at 0.2 ml min^−1 flow rate. Pure fractions were pooled and lyophilized as TFA salts (purity >95%). Peptide samples for biological assays were further subjected to counter ion exchange on a DEAE-Sephadex weak […] resin. Briefly, peptide solutions in water were loaded on a 0.5 mL syringe column, and then eluted by decreasing the pH with an acetate buffer at pH 4.3 to obtain the desired peptide acetate salt. Further, the relative hydrophobicities of P9 peptides were evaluated through their retention in reverse phase HPLC.

Row | Compound | Fold change (16 h) [1] | Fold change (1 h) [1] | MIC, Preincubation for 1 h in 10% serum ([1]; E. coli ATCC 25922, peptide incubated 1 h in 10% fetal bovine serum at 37 °C before MIC assay, five replicates) | MIC, PAO1 Wt [2] | MIC, B. spizizenii ATCC6633 [3] | MIC, S. aureus MRSA [4] | MIC, P. aeruginosa ATCC27853 [5] | MIC, E. coli ATCC25922 [6] | toxic effect on CaCo2 cells at low doses, compared with HaCaT [7] | toxic effects on HaCaT cells at low doses [8] | MIC, S. aureus ATCC6538P [9] | relative hydrophobicity (retention in reverse phase HPLC) [10]
1 | CC(=O)N[C@@H](CC(C)C)C(=O)N[C@@H](CCCNC(=N)N)C(=O)N[C@H](C(=O)N[C@@H](CCCNC(=N)N)C(=O)N[C@@H](CC(C)C)C(=O)N[C@@H](C)C(=O)N[C@@H](CO)C(=O)N[C@@H](Cc1c[nH]cn1)C(=O)N[C@@H](CC(C)C)C(=O)N[C@@H](CCCNC(=N)N)C(=O)N[C@@H](CCCCN)C(=O)N[C@@H](CC(C)C)C(=O)N[C@@H](CCCNC(=N)N)C(=O)N[C@@H](CCCCN)C(=O)N[C@@H](CCCNC(=N)N)C(=O)N[C@@H](CC(C)C)C(=O)N[C@@H](CC(C)C)C(=O)N[C@@H](CCCNC(=N)N)C(N)=O)C(C)C [Ac-ApoE(133–150)-NH2, reference compound] | >16 |  |  |  |  |  |  |  |  |  |  | 
2 | CC(C)C[C@H](NC(=O)[C@H](CCCNC(=N)N)NC(=O)[C@@H](NC(=O)[C@H](CCCNC(=N)N)NC(=O)[C@@H](N)CC(C)C)C(C)C)C(=O)N[C@@H](C)C(=O)N[C@@H](CO)C(=O)N[C@@H](Cc1c[nH]cn1)C(=O)N[C@@H](CC(C)C)C(=O)N[C@@H](CCCNC(=N)N)C(=O)N[C@@H](CCCCN)C(=O)N[C@@H](CC(C)C)C(=O)N[C@@H](CCCNC(=N)N)C(=O)N[C@@H](CCCCN)C(=O)N[C@@H](CCCNC(=N)N)C(=O)N[C@@H](CC(C)C)C(=O)N[C@@H](CC(C)C)C(=O)N[C@@H](CCCNC(=N)N)C(=O)O [ApoE(133–150), reference compound] | >16 | >16 | completely lost antimicrobial activity |  |  |  |  |  |  |  |  | 
3 | CC(C)(C)SC[C@H](NC(=O)CCCCCN)C(=O)N[C@@H](CCCCN)C(=O)N[C@@H](Cc1ccc2ccccc2c1)C(=O)N[C@@H](Cc1ccc2ccccc2c1)C(=O)N[C@@H](CCCCN)C(=O)N[C@@H](CCCCN)C(=O)N[C@@H](CSC(C)(C)C)C(=O)NCCCCCC(N)=O [P9Nal(SR)] (H-[Ahx]C(tBu)K[2Nal][2Nal]KKC(tBu)[Ahx]-NH2) | >8 | 1 |  | 10 µM (≈ 13.4 µg/mL) | 40 µM (≈ 53.6 µg/mL) | 40 µM (≈ 53.6 µg/mL) | 1.25 µM (≈ 1.68 µg/mL) | 10 µM (≈ 13.4 µg/mL) | slightly higher | no evident toxic effects | 40 µM (≈ 53.6 µg/mL) | 
4 | CC(C)(C)SSC[C@H](NC(=O)CCCCCN)C(=O)N[C@@H](CCCCN)C(=O)N[C@@H](Cc1ccc2ccccc2c1)C(=O)N[C@@H](Cc1ccc2ccccc2c1)C(=O)N[C@@H](CCCCN)C(=O)N[C@@H](CCCCN)C(=O)N[C@@H](CSSC(C)(C)C)C(=O)NCCCCCC(N)=O [P9Nal(SS)] (H-[Ahx]C(StBu)K[2Nal][2Nal]KKC(StBu)[Ahx]-NH2) |  | 1 |  | 10 µM (≈ 14 µg/mL) | 10 µM (≈ 14 µg/mL) | 20 µM (≈ 28.1 µg/mL) | 2.5 µM (≈ 3.51 µg/mL) | 10 µM (≈ 14 µg/mL) |  |  | 10 µM (≈ 14 µg/mL) | most hydrophobic
5 | CC(C)(C)SSC[C@H](NC(=O)CCCCCN)C(=O)N[C@@H](CCCCN)C(=O)N[C@@H](Cc1c[nH]c2ccccc12)C(=O)N[C@@H](Cc1c[nH]c2ccccc12)C(=O)N[C@@H](CCCCN)C(=O)N[C@@H](CCCCN)C(=O)N[C@@H](CSSC(C)(C)C)C(=O)NCCCCCC(N)=O [P9Trp(SS)] (H-[Ahx]C(StBu)KWWKKC(StBu)[Ahx]-NH2) |  | 1 |  | 10 µM (≈ 13.8 µg/mL) | 40 µM (≈ 55.3 µg/mL) | 40 µM (≈ 55.3 µg/mL) | 2.5 µM (≈ 3.46 µg/mL) | 10 µM (≈ 13.8 µg/mL) |  |  | 20 µM (≈ 27.7 µg/mL) | 
